Data as given in patent US10561638B2, “Methods for treating dependence” (Biotie Therapies, Inc., priority 2007, dated 2020).

Assays:
[1] = system: tissue norepinephrine and dopamine levels; assay: Tissue catecholamines in SHRs after single dose (dose response, time course); type: in vivo, spontaneously hypertensive rats; conditions: for dose with significant change in dopamine/norepinephrine ratio: 6 h after single oral dose
Method: Significant changes in these parameters were also observed in the left ventricle of male Sprague-Dawley rats 6 hours after the second of two i.v. injections (15 mg/kg) given 12 hours apart. The 24 hour time course of tissue catecholamines was studied in male SHRs following oral administration of either 10 or 30 mg/kg, respectively. The increase in the dopamine/norepinephrine ratio was significant at 1 hour, and was long lasting (12 hours at 10 mg/kg, mesenteric artery, and 24 hours at 30 mg/kg, left ventricle).
(§1) In SHRs there were significant changes in the dopamine/norepinephrine ratio in the mesenteric artery at doses of 0.3 mg/kg, in the left ventricle at 3.0 mg/kg, and in the cerebral cortex at 10 mg/kg. […] In a second dose-response study in SHRs, three doses were administered 12 hours apart at either 3.0, 10, 30, or 100 mg/kg, and tissue was harvested six hours after the third dose. Nepicastat caused a significant dose dependent decrease in norepinephrine (10 mg/kg) and increase in dopamine (3.0 mg/kg) and the dopamine/norepinephrine ratio (3.0 mg/kg) in the left ventricle and mesenteric artery. The effects of nepicastat on dopamine and norepinephrine concentrations, and the dopamine/norepinephrine ratio in the cerebral cortex were significant only at 30 and 100 mg/kg.
The purpose of this study was to determine the 24 hours time course of the effects of nepicastat (10 mg/kg) on dopamine and norepinephrine levels in the mesenteric artery following a single oral dose in spontaneously hypertensive rats. Catecholamine levels were measured at 1, 2, 4, 6, 8, 12, 16, and 24 hours after a single oral administration of either nepicastat (10 mg/kg) or vehicle (dH2O; 10 ml/kg).
Sixteen-17 week old, male spontaneous hypertensive rats (SHRs) weighing 300-400 grams were allowed food and water ad libitum. Animals were weighed and randomly assigned, the afternoon before the study, to one of the following treatment groups (n=9 per group): a single oral administration of nepicastat at 10 mg/kg or a single oral administration of vehicle (10 ml/kg) to be sacrificed at 1, 2, 4, 6, 8, 12, 16, or 24 hours.
Animals were dosed […] the morning of sacrifice. At 1, 2, 4, 6, 8, 12, 16 and 24 hours following administration, 9 treated animals and 9 vehicle animals were anesthetized with halothane, decapitated, and the left ventricle and mesenteric artery were rapidly harvested and weighed. The mesenteric artery was put in 0.5 ml of 0.4M perchloric acid in a centrifuge tube and the left ventricle put into an empty cryotube. Both tissues were immediately frozen in liquid nitrogen and stored at −70° C. Mesenteric artery catecholamine levels were determined using HPLC with electrochemical detection. At the time of decapitation, plasma samples were taken by draining blood from the carcass into a tube containing heparin, and centrifuging at 4° C.
Each treatment group was compared to vehicle at each time point. A two way analysis of variance (ANOVA) with effects TRT, HARVEST and their interaction was performed. A one way ANOVA with factor TRT was performed for each harvest time. Pairwise analyses between treated and vehicle animals, at each time point, were carried out using Fisher's LSD strategy to control the experiment-wise error rate. […] Levels were marginally (0.05<p<0.1) lower at the 6 hour time point.

[2] = Safety and tolerability in squirrel monkeys; type: in vivo
Method: Six squirrel monkeys, three non-lesioned and three lesioned (received 2 mg/kg MPTP 3 months prior), were used to study safety and tolerability of nepicastat. Animals received nepicastat at a concentration of 0.5, 2.0, or 5.0 mg/kg twice daily, (10 am and 2 pm), for 5 days with a two-day washout between the different dose levels. Nepicastat was administered via oral syringe at the 0.5, 2.0 […] mg/kg doses and as oral gavage at the 5.0 mg/kg dose.

[3] = system: norepinephrine and dopamine levels; assay: Cortex and mesenteric artery catecholamines in SHRs after 7 and 25 days; type: in vivo, spontaneous hypertensive rats
Method: Nepicastat at 1 and 10 mg/kg was prepared in terms of the free base. The weighings were dissolved in vehicle (dH2O) to yield oral doses that could be administered in a volume of 10.0 ml/kg.
Male spontaneous hypertensive rats (SHRs), 16-17 weeks old at the onset of the study, were used. Animals were allowed food and water ad libitum. Animals were randomly assigned to one of the following treatment groups: oral administration of nepicastat at 10 mg/kg, 1 mg/kg, or a vehicle group of deionized water at 10 ml/kg. Rats were dosed orally once a day for 7 or 25 days with vehicle, 1 mg/kg or 10 mg/kg nepicastat (n=8) except for day 25, where n=9. On day 7, four hours after compound administration, animals were anesthetized with halothane, decapitated and the cortex and mesenteric artery were harvested, weighed, and analyzed from 24 rats (n=8/treatment group). The remaining […] continued receiving oral administration with one of the three treatments for the following 18 days. At 4 hours after the last treatment the mesenteric artery and cortex from this group were harvested, weighed, and analyzed for catecholamine levels.
Statistically, the three treatments were compared at each time period (7 or 25 days) using a non-parametric one-way analysis of variance (ANOVA). Pairwise comparisons of each treatment with control were performed using Fisher's LSD strategy on the means, adjusted for differences in sample size, to control the experiment-wise error rate. Each variable was analyzed separately. For FIGS. 6-11, *, p<0.05 and **, P<0.01.

anesthetized SHRs = assay: Acute i.v. treatment of anesthetized SHRs, blood pressure and renal function; type: in vivo, spontaneously hypertensive rats; conditions: 3.0 mg/kg i.v.
Source text: The calculated renal vascular resistance was decreased following dosing. An attempt was made using the DA-1 antagonist SCH-23390 to assess if the renal vasodilator effects of nepicastat were mediated by DA-1 receptors.

[4] = Tolerability in patients with chronic heart failure; type: in vivo, human
Method: The dose at which the frequency of significant adverse events increased was 160 mg.

[5] = system: tissue norepinephrine and dopamine levels; assay: Tissue catecholamines in Sprague-Dawley rats after single oral dose; type: in vivo
Method: as §1

[6] = cerebral cortex, 7 days, 10 mg/kg
[7] = mesenteric artery, 7 and 25 days, 10 mg/kg

Cl.NCc1c[nH]c(=S)n1[C@H]1CCc2c(F)cc(F)cc2C1 [nepicastat, (S)-5-Aminomethyl-1-(5,7-difluoro-1,2,3,4-tetrahydronaphth-2-yl)-2,3-dihydro-2-thioxo-1H-imidazole hydrochloride]
duration of increase in dopamine/norepinephrine ratio ([1]; 10 mg/kg, mesenteric artery): 12 h | duration of increase in dopamine/norepinephrine ratio ([1]; 30 mg/kg, left ventricle): 24 h | time at which increase in dopamine/norepinephrine ratio was significant ([1]; 10 or 30 mg/kg oral): 1 h | doses inhibiting DBH ([1]; cerebral cortex of rats): 60 to 100 mg/kg/day | dose with significant change in dopamine/norepinephrine ratio ([1]; cerebral cortex): 10 mg/kg | oral dose with significant evidence for DBH inhibition ([1]; heart and mesenteric artery, rats): 6 mg/kg/day | doses inhibiting DBH ([1]; left ventricle and mesenteric artery of rats): 1 to 6 mg/kg/day | dose with significant change in dopamine/norepinephrine ratio ([1]; left ventricle): 3.0 mg/kg | dopamine/norepinephrine ratio vs vehicle ([1]; mesenteric artery, 10 mg/kg po, 1, 2, 4, 6 and 12 hour): significantly (p<0.05) greater | dopamine levels vs vehicle ([1]; mesenteric artery, 10 mg/kg po, 2 and 6 hr): significantly (p<0.05) higher | norepinephrine, dopamine and ratio ([1]; mesenteric artery, 10 mg/kg po, 16 and 24 h harvest): no changes in any of the three parameters | dose with significant change in dopamine/norepinephrine ratio ([1]; mesenteric artery): 0.3 mg/kg | norepinephrine vs vehicle ([1]; mesenteric artery, single 10 mg/kg po, 1-24 h): significantly (p<0.05) lower than vehicle only at the 4 hr time point | adverse finding in one non-lesioned monkey ([2]; 5.0 mg/kg twice daily, final two days): light beige colored loose stools | tolerability ([2]; 0.5 and 2.0 mg/kg twice daily, 5 days): well tolerated at the two lower doses | norepinephrine levels and dopamine/norepinephrine ratio vs vehicle ([3]; cerebral cortex, 7 days, 1 mg/kg): no significant (p>0.05) differences | dopamine/norepinephrine ratio vs vehicle [3, 6]: significantly (p<0.05) higher | norepinephrine levels vs vehicle [3, 6]: significantly (p<0.1) lower | dopamine levels vs vehicle ([3]; cerebral cortex, 7 days, 1 or 10 mg/kg): no significant (p>0.05) differences | dopamine levels vs vehicle ([3]; cortex, 25 days, 1 mg/kg): significantly (p<0.05) higher | dopamine/norepinephrine ratio vs vehicle ([3]; cortex, 25 days, 1 mg/kg): significantly (p<0.01) greater | dopamine/norepinephrine ratio vs vehicle ([3]; cortex, 25 days, 10 mg/kg): significantly greater (p<0.05) | norepinephrine levels vs control ([3]; cortex, 25 days, either dose): not significantly (p.>0.05) different | all parameters vs control ([3]; mesenteric artery, 1 mg/kg): None of the parameters measured were significantly (p<0.05) different | dopamine levels and dopamine/norepinephrine ratios vs vehicle [3, 7]: significantly higher dopamine levels and dopamine/norepinephrine ratios | norepinephrine levels vs vehicle [3, 7]: no differences in norepinephrine levels | calculated renal vascular resistance (anesthetized SHRs): decreased | renal blood flow, urine production, sodium and potassium excretion (anesthetized SHRs): did not lower renal blood flow or alter urine production or urinary excretion of sodium or potassium | mean arterial pressure (anesthetized SHRs; over 3 hours): decreased mean arterial pressure | patients with symptomatic orthostatic hypotension ([4]; 160 mg): 6 of the 8 patients | patients who developed a rash ([4]; 160 mg for 8 days or longer): Four of 8 patients | tolerability ([4]; daily doses of 40, 80, 120 mg for 10 days): generally well tolerated | dose at which the frequency of significant adverse events increased ([4]; human, in vivo): 160 mg | dose with significant increase in dopamine/norepinephrine ratio ([5]; cerebral cortex, only at this dose): 100 mg/kg | dose with significant increase in dopamine/norepinephrine ratio ([5]; left ventricle, 6 h after single oral dose): 1.0 mg/kg | dose with significant increase in dopamine/norepinephrine ratio ([5]; mesenteric artery, 6 h after single oral dose): 3.0 mg/kg
